In patent US20240287148A1, “ENGINEERED BIOMOLECULES FOR NUTRIENT REPROGRAMMING” (CORNELL UNIVERSITY, priority 2021, published 2024):
Where a SMILES comes first, the peptide text is derived from it. The star is where a group is joined. Cbz = O=C(OCc1ccccc1)*; CH2F = FC*

How the values were obtained:
ATF4 = ATF4 expression in MEF cells (western blotting, RT-qPCR of Atf4); assay type: cell-based, mouse; conditions: for ATF4 induction in cystine-starved cells: cystine deprivation
Procedure: For cystine and methionine deprivation, the experiment was carried out by incubating cells in DMEM, high glucose, no glutamine, no methionine, no cystine (Thermo Fisher: 21013024) with 10% dialyzed FBS (Sigma Aldrich: F0392). For leucine, histidine, and arginine deprivation, the experiment was carried out by incubating cells in DMEM, high glucose, no arginine, no histidine, no leucine, respectively, (custom prepared by Gibco/Invitrogen) with 10% dialyzed FBS (Sigma Aldrich: F0392). For full amino acid starvation, the experiment was carried out by incubating cells in HBSS buffer (Lonza) with 10% dialyzed FBS (Sigma Aldrich: F0392). Samples were collected at indicated experimental time points.
Following experimental conditions, total RNA was isolated by TRIzol reagent (Invitrogen) and reverse transcription was performed using High-Capacity cDNA Reverse Transcription Kit (Invitrogen). Real-time PCR analysis was conducted using Power SYBR Green PCR Master Mix (Applied Biosystems) and data was generated using a LightCycler 480 Real-Time PCR System (Roche Applied Science). qPCR oligo sequences are listed in Table 4.
(§1) Cells were washed with PBS (Gibco) and then lysed on ice using cell lysis buffer (50 mM Tris [pH7.5], 150 mM NaCl, 1 mM EDTA, 1% Triton X-100, 2 U/ml DNase and protease inhibitor cocktail tablet). The lysates were incubated on ice for 30 min and spun down at 10,000 rpm for 3 mins to collect supernatant. Collected supernatant was measured by protein assay (Bio-Rad: 500-0112) to quantify the protein concentration. Equal amounts of proteins across samples were mixed with SDS-PAGE sample buffer (50 mM Tris [pH6.8], 100 mM dithiothreitol, 2% SDS, 0.1% bromophenol blue, 10% glycerol) and heated for 9 mins at 95° C. Denatured proteins were separated on SDS-PAGE and transferred to PVDF membranes (Fisher). Membranes were blocked in TBS containing 5% non-fat milk and 0.1% Tween-20 for 1 hr. Phospho-proteins were blocked in TBS containing 5% BSA and 0.1% Tween-20 for 1 hr. Blocking was followed by incubation with primary antibodies overnight at 4° C. Membranes were washed using TBST followed by subsequent incubation using horseradish peroxidase-coupled secondary antibodies at room temperature for 1 hr. Immunoblots were washed again using TBST and visualized using enhanced chemiluminescence (ECL-Plus, GE Healthcare).

[1] = Body weight of tumor-bearing mice; assay type: in vivo, mouse; conditions: mice with UMRC6 tumors; IKE 10 mg/kg/2d intraperitoneal; CysRx-TT3 intratumoral
Procedure: (§2) Previously established UMRC6 tumors were immediately excised from CO2 euthanized mice and minced using a surgical 10 blade. Approximately […] portions of tumor were bilaterally implanted into 6-8-week-old NSG mice. Animals were monitored for tumor growth and randomized into treatment groups when tumors reached 150-200 mm^3 in size. IKE/vehicle treated animals received intraperitoneal injections every other day (10 mg/kg). CysRx-TT3 treatment was conducted via weekly intratumoral (IT) injections (100 μL) for three weeks. Tumors for IT injections were demarcated into four quadrants and an equal volume (25 μL) of CysRx-TT3 was injected into each quadrant. HiBit-TT3 was injected into the other flank as control. Mice were monitored for tumor growth three times per week using digital calipers. Health and body condition were also monitored concurrently. Animals were sacrificed by CO2 euthanasia (3.5 L/min) one week after final administration or when the body condition started to deteriorate. Tumors were excised from the flank using a surgical 10 blade, weighed and either flash frozen or fixed in 4% PFA.

UMRC6 tumors = assay: CysRx treatment of xenografted UMRC6 tumors in mice (tumor growth); assay type: in vivo, mouse; conditions: IKE 10 mg/kg intraperitoneal every other day, 25 days
Procedure: as §2
Magnetic resonance imaging (MRI) of mice was conducted using a 1T M3 compact MRI from Aspect Imaging Ltd. Mice were anesthetized using 2.5% isoflurane and placed onto the specimen arm, coil was then placed around the subject and fixed in place. […]

MEF cells [2] = assay: Cell viability assay (ferroptosis) in MEF cells; assay type: cell-based, mouse; conditions: for cell death under cystine restriction (cell viability): Necrostatin 5 μM, Ferrostatin 1 μM
Procedure: Cells were seeded into 96-well plates at 3,000 cells per well. After 16 hr, cells were subject to conditions of the indicated experiments. Cells were incubated for 24 hr in their experimental conditions and cell viability was measured using the CellTiter-Blue viability assay (Promega) following the manufacturer's instructions. Relative cell viability in the presence of starvation and/or compounds was normalized to the vehicle-treated controls after background subtraction.

NRF2 = assay: ARE-driven Fluc reporter assay (NRF2 activity) in MEF cells; assay type: cell-based, mouse; conditions: cystine starvation 8 hr, BafilomycinA 50 nM or ConcanamycinA 100 nM
Procedure: (§3) Firefly luciferase reporters were co-transfected with a Renilla reporter plasmid into MEF cells or CTNS knockdown cells for 4 hrs. Transfected cells were treated with amino acid starvation and/or compound treatment at indicated timepoints. Firefly and Renilla luciferase activities were measured using Dual-Luciferase Reporter Assay System (Promega). Relative values of firefly luciferase activities were normalized to Renilla luciferase control.

MEF cells [3] = assay: Cell fractionation and western blotting of MEF cells transfected with CysRx; assay type: cell-based, mouse; conditions: BafilomycinA 50 nM for 12 hrs
Procedure: as §1
MEF cells were grown in four 15 cm dishes until 80% confluent (˜3×10^8 cells) followed by washing twice with ice-cold PBS. […]

Atf4 promoter = assay: Atf4 promoter-driven Fluc reporter assay in MEF cells; assay type: cell-based, mouse; conditions: BafilomycinA 50 nM 8 hrs with or without cystine deprivation
Procedure: as §3

MEF cells [4] = assay: Lipid peroxidation measurement (C11-BODIPY, flow cytometry) in MEF cells; assay type: cell-based, mouse; conditions: for lipid oxidation in cystine-starved cells (C11-BODIPY): cystine deprivation 18 hrs, BafA1 50 nM or ConA
Procedure: Cells were plated in 6-well dishes and followed by indicated treatments. After treatment, cells were incubated with fresh medium containing 2 μM BODIPY 581/591 C11 dye (Invitrogen: D3861) for 15 min. Cells were next collected and washed twice with ice-cold PBS followed by fluorescence-activated cell sorting (FACS) analysis using Thermo Fisher Attune NxT. Fluorescence captured during analysis was gated and plotted using FCS Express 7.

MEF cells [5] = assay: Intracellular cysteine and cystine measurement in MEF cells (HPLC); assay type: cell-based, mouse
Procedure: Cells were grown on 100 mm dishes until 80-90% confluent. Cells were lysed on ice in lysis buffer (50 mM Tris [pH7.5], 150 mM NaCl, 1 mM EDTA, 1% Triton X-100, 2 U/ml DNase and protease inhibitor cocktail tablet), followed by centrifugation at 10,000 rpm for 8 min at 4° C. The supernatant was collected and 100 μL of sample was mixed with 10 μL TCEP (50 mM in borate buffer [pH 7.4]) (Sigma Aldrich) in a vial and incubated at 25° C. for 10 min.
90 μL of a solution containing 1% TCA and 1 mM EDTA was then added. The total solution was centrifuged for 10 min at 10,000 g at 4° C. 100 μL of the obtained supernatant, 20 μL of 10 mM CNBF solution (4-chloro-3,5-dinitrobenzotrifluoride [Sigma Aldrich: 197017]), 20 μL of methanol, and 50 μL of borate buffer (0.2 M [pH 8.0])) were mixed and incubated at 25° C. for 20 min. Derivatization was terminated with 10 μL of 2M HCl followed by HPLC analysis (see below).
Cells were grown on 100 mm dishes until 80-90% confluent. Cells were lysed on ice in lysis buffer (50 mM Tris [pH7.5], 150 mM NaCl, 1 mM EDTA, 1% Triton X-100, 2 U/ml DNase and protease inhibitor cocktail tablet). 100 μL of sample was mixed with 100 μL of 6%5-Sulfosalicylic Acid Dyhydrate solution (Sigma: S3147), followed by centrifugation at 3,000 g for 15 min at 4° C. The supernatant was collected and 25 μL of freshly made derivatizing solution was added. Samples sat at room temperature for 20 mins, followed by rotary evaporation. Dried material was dissolved in 150 μL of phase A solution followed by HPLC analysis (see below).
All resulting solutions for cysteine, glutathione, and cystine were filtered through a 0.22 μm filter membrane (Millipore Corporation, Belfast, MA, USA) and injected into a chromatographic system. High performance liquid chromatography (HPLC) was performed using a LC-20AT pump with a SPD-20AV UV-vis detector monitored at 270 and 220 nm (Shimadzu, Japan) equip with an Ultra Aqueous C18 column (100 Å, 5 μm, 250 mm×4.6 mm; Restek, USA) at a flow rate of 1 mL/min with a mobile phase containing 0.1% trifluoroacetic acid (TFA) in H2O or acetonitrile. Values were normalized to protein concentration by Bradford assay.

[6] = MEF cells, 24 hrs cystine deprivation, Z-VAD 20 μM
[7] = MEF cells, cystine deprivation 24 hrs, BafilomycinA 50 nM or ConcanamycinA 100 nM
[8] = BafilomycinA 50 nM for 12 hrs, normalized to protein

SMILES: N[C@@H](CCS(=O)(=O)O)C(=O)O [homocysteic acid]
- ATF4 expression (ATF4; MEF cells, HCA 10 mM): induced

SMILES: CC(C)Oc1ccc(C(=O)Cn2ccnc2)cc1-n1c(CN2CCN(C(=O)COc3ccc(Cl)cc3)CC2)nc2ccccc2c1=O [IKE, imidazole ketone erastin]
- body weight [1]: weight loss
- tumor growth (UMRC6 tumors): suppressed

SMILES: CCOC(=O)c1ccc(NC2CCCCC2)c(N)c1 [ferrostatin-1]
- cell death under cystine restriction (cell viability) (MEF cells [2]; [6]): prevented

SMILES: O=C1O[C@H]([C@@H](O)CO)C(O)=C1O [ascorbic acid]
- ATF4 induction upon cystine starvation (ATF4; MEF cells, 8 hrs cystine starvation, Ascorbic Acid 20 μM): little effects
- ATF4 expression induced by homocysteic acid (HCA) (ATF4; MEF cells, HCA 10 mM, Ascorbic Acid 20 μM): attenuated

SMILES: CCCCS(=N)(=O)CCC(N)C(=O)O (stereo not drawn) [BSO, buthionine sulfoximine]
- ATF4 expression (ATF4; MEF cells, BSO 10 μM, 8 hrs): induced

SMILES: CN1C(=O)C(Cc2c[nH]c3ccccc23)NC1=S (stereo not drawn) [necrostatin, necrostatin-1]
- cell death under cystine restriction (cell viability) (MEF cells [2]; [6]): not

SMILES: O=C(O)c1cc(/N=N/c2ccc(S(=O)(=O)Nc3ccccn3)cc2)ccc1O [sulfasalazine]
- susceptibility of cells lacking cystinosin (cell viability) (MEF cells [2]; MEF cells with CTNS knockdown, Erastin 20 μM, Sulfsalazine 200 μM): highly susceptible
- ferroptosis (cell viability) (MEF cells [2]; MEF cells, 24 hrs, Erastin 20 μM, Sulfsalazine 200 μM): induced

SMILES: CC(C)n1cnc2c(NCCc3ccc(O)cc3)nc(-c3csc4ccccc34)nc21 [SR1]
- ATF4 induction in cystine-starved cells (ATF4; MEF cells, SR1 200 nM or Indirubin 2 μM): significantly reduced
- ferroptosis of cystine-starved cells (cell viability) (MEF cells [2]; MEF cells, cystine deprivation 24 hrs, SR1 200 nM or Indirubin 2 μM): promoted

SMILES: O=C(COc1ccc(Cl)cc1)NC1CCC(NC(=O)COc2ccc(Cl)cc2)CC1 (stereo not drawn) [ISRIB]
- cystine shortage-induced ATF4 upregulation (western blotting) (ATF4; eIF2a(S/S) and eIF2a(A/A) MEF cells, 8 hrs amino acid starvation, ISRIB 100 nM): insensitive

SMILES: CO/C1=C\C(C)=C\[C@@H](C)[C@@H](O)[C@@H](C)C/C(C)=C/C=C/[C@H](OC)[C@@H]([C@@H](C)[C@@H](O)[C@H](C)[C@@]2(O)C[C@@H](O)[C@H](C)[C@@H](C(C)C)O2)OC1=O [BafA1, bafilomycin A1]
- ATF4 induction in cystine-starved cells (ATF4; MEF cells, BafilomycinA 50 nM 8 hrs, ConcanamycinA 100 nM 12 hrs): greatly potentiated
- NRF2 activation (ARE Fluc reporter) (NRF2): prevented
- ferroptosis in cystine-starved cells (cell viability) (MEF cells [2]; [7]): prevented
- CysRx level (western blotting) (MEF cells [3]): CysRx accumulation
- Atf4 promoter-driven Fluc activity (normalized to Renilla) (Atf4 promoter): transcriptional upregulation
- lipid oxidation in cystine-starved cells (C11-BODIPY) (MEF cells [4]): significantly reduced
- cysteine level (MEF cells [5]; [8]): increase
- cystine level (MEF cells [5]; [8]): decrease
- cytosolic cysteine level in cystine-starved cells (MEF cells [5]; cystine deprivation, BafilomycinA 50 nM 12 hrs): partially restored

SMILES: COC(=O)C[C@H](NC(=O)[C@H](C)NC(=O)[C@@H](NC(=O)OCc1ccccc1)C(C)C)C(=O)CF [Z-VAD] (Cbz-Val-Ala-Asp(OMe)-CH2F)
- cell death under cystine restriction (cell viability) (MEF cells [2]; [6]): not
- reduced cell viability under full amino acid starvation (MEF cells [2]; MEF cells, 24 hrs full amino acid starvation, Z-VAD 20 μM): rescued

SMILES: C/C=C/[C@H]1O[C@@](O)([C@@H](C)[C@H](O)[C@H](C)[C@H]2OC(=O)/C(OC)=C/C(C)=C/[C@@H](C)[C@@H](O)[C@@H](CC)[C@@H](O)[C@H](C)C/C(C)=C/C=C/[C@@H]2OC)C[C@@H](O[C@H]2C[C@@H](O)[C@H](OC(N)=O)[C@@H](C)O2)[C@@H]1C [ConA, concanamycin A]
- NRF2 activation (ARE Fluc reporter) (NRF2): prevented
- ferroptosis in cystine-starved cells (cell viability) (MEF cells [2]; [7]): prevented
- lipid oxidation in cystine-starved cells (C11-BODIPY) (MEF cells [4]): significantly reduced

SMILES: C[C@@H]1C[C@@H]([C@H](O)CC2CC(=O)NC(=O)C2)C(=O)[C@@H](C)C1 [cycloheximide]
- ferroptosis induced by erastin and sulfasalazine (cell viability) (MEF cells [2]; MEF cells, 24 hrs Erastin 20 μM or Sulfsalazine 200 μM, Cycloheximide 50 μM): partially rescued
- increased ferroptosis susceptibility under cystine deprivation (cell viability, lipid ROS) (MEF cells [2]; MEF cells, 24 hrs cystine deprivation, Cycloheximide 50 μM): prevented
- intracellular cyst(e)ine levels (MEF cells [5]; 12 hrs amino acid starvation, Cycloheximide 50 μM): largely restored

SMILES: NCCS [cysteamine]
- ATF4 induction under the cystine rich condition (ATF4; MEF cells, Cysteamine 0.5 mM, 12 hrs): pronounced ATF4 induction
- ferroptotic cell death of cells lacking cystinosin (MEF cells [2]; MEF cells with CTNS knockdown, 24 hrs cystine deprivation, Cysteamine 0.5 mM): rescued
- ferroptosis in cystine-starved cells (cell viability) (MEF cells [2]; MEF cells, cystine deprivation, Cysteamine 0.5 mM for 24 hrs): rescued
- lipid oxidation in cystine-starved cells (MEF cells [4]; cystine deprivation, Cysteamine 0.5 mM for 18 hrs): eliminated
- cysteine in the cytosol (MEF cells [5]; Cysteamine 0.5 mM, 12 hrs): increase
- lysosomal cystine level (MEF cells [5]; Cysteamine 0.5 mM, 12 hrs): readily depleted
